Measured values from patent US9556158B2, “Fungicidal 3-[(pyridin-2-ylmethoxyimino)(phenyl)methyl]-2-substituted-1,2,4-oxadiazol-5(2H)-one derivatives” (BAYER INTELLECTUAL PROPERTY GMBH, priority 2011, dated 2017).

conditions: HPLC on reversed phase columns, pH 2.7, 0.1% formic acid in water / acetonitrile gradient
Experimental: Measurement of log P values was performed according EEC directive 79/831 Annex V.A8 by HPLC (High Performance Liquid Chromatography) on reversed phase columns with the following method:
Measurement of LC-MS was done at pH 2.7 with 0.1% formic acid in water and with acetonitrile (contains 0.1% formic acid) as eluent with a linear gradient from 10% acetonitrile to 95% acetonitrile.
Calibration was done with not branched alkan2-ones (with 3 to 16 carbon atoms) with known log P-values (measurement of log P values using retention times with linear interpolation between successive alkanones). lambda-maX-values were determined using UV-spectra from 200 nm to 400 nm and the peak values of the chromatographic signals.

| Structure (SMILES) | LogP |
| --- | --- |
| Cn1oc(=O)nc1C(=NOCc1cccc(NC(=O)OC(C)(C)C)n1)c1cccc(F)c1F [Example 187] | 3.33 |

same assay, conditions: pH 2.7, LogP, HPLC on reversed phase columns, pH 2.7, 0.1% formic acid in water / acetonitrile gradient

| Structure (SMILES) | chromatographic logP |
| --- | --- |
| C#CCCCCOC(=O)Nc1cccc(CON=C(c2ccccc2)c2nc(=O)on2C)n1 [Example 124] | 3.21 |
| C#CCC(C)OC(=O)Nc1cccc(CON=C(c2ccccc2)c2nc(=O)on2C)n1 (stereo not drawn) [Example 125] | 2.98 |
| Cn1oc(=O)nc1C(=NOCc1cccc(NC(=O)Cc2ccccc2)n1)c1ccccc1 [Example 126] | 2.94 |
| Cn1oc(=O)nc1C(=NOCc1cccc(NC(=O)OCC2CCCCC2)n1)c1ccccc1 [Example 127] | 4.24 |
| Cc1cccc(C(=O)Nc2cccc(CON=C(c3ccccc3)c3nc(=O)on3C)n2)c1 [Example 128] | 3.27 |
| C=CCCCOC(=O)Nc1cccc(CON=C(c2ccccc2)c2nc(=O)on2C)n1 [Example 129] | 3.41 |
| Cn1oc(=O)nc1C(=NOCc1cccc(NC(=O)OCCCC2CCCC2)n1)c1ccccc1 [Example 130] | 4.68 |
| C#CCOC(=O)Nc1cccc(CON=C(c2ccccc2)c2nc(=O)on2C)n1 [Example 131] | 2.57 |
| COc1cccc(C(=O)Nc2cccc(CON=C(c3ccccc3)c3nc(=O)on3C)n2)c1 [Example 132] | 3.02 |
| Cn1oc(=O)nc1C(=NOCc1cccc(NC(=O)OCCCCl)n1)c1ccccc1 [Example 133] | 3.02 |
| CC#CCOC(=O)Nc1cccc(CON=C(c2ccccc2)c2nc(=O)on2C)n1 [Example 134] | 2.84 |
| Cn1oc(=O)nc1C(=NOCc1cccc(NC(=O)Cc2cccs2)n1)c1ccccc1 [Example 135] | 2.86 |
| Cn1oc(=O)nc1C(=NOCc1cccc(NC(=O)C2(C)CCCCC2)n1)c1ccccc1 [Example 136] | 3.68 |
| CCC#CCOC(=O)Nc1cccc(CON=C(c2ccccc2)c2nc(=O)on2C)n1 [Example 137] | 3.21 |
| Cn1oc(=O)nc1C(=NOCc1cccc(NC(=O)OCCC2CC2)n1)c1ccccc1 [Example 138] | 3.39 |
| Cn1oc(=O)nc1C(=NOCc1cccc(NC(=O)COc2ccccc2)n1)c1ccccc1 [Example 139] | 3.13 |
| CC(Oc1ccccc1)C(=O)Nc1cccc(CON=C(c2ccccc2)c2nc(=O)on2C)n1 (stereo not drawn) [Example 140] | 3.35 |
| CC(OC(=O)Nc1cccc(CON=C(c2ccccc2)c2nc(=O)on2C)n1)C1CCCCC1 (stereo not drawn) [Example 141] | 4.56 |
| Cn1oc(=O)nc1C(=NOCc1cccc(NC(=O)c2csc3ccccc23)n1)c1ccccc1 [Example 142] | 3.65 |

| Structure (SMILES) | chromatographic logP |
| --- | --- |
| Cn1oc(=O)nc1C(=NOCc1cccc(NC(=O)OCCCCCl)n1)c1ccccc1 [Example 143] | 3.27 |
| CCCCC(C)C(=O)Nc1cccc(CON=C(c2ccccc2)c2nc(=O)on2C)n1 (stereo not drawn) [Example 144] | 3.55 |
| Cn1oc(=O)nc1C(=NOCc1cccc(NC(=O)CCC2CCCC2)n1)c1ccccc1 [Example 145] | 3.72 |
| Cn1oc(=O)nc1C(=NOCc1cccc(NC(=O)C2CCCCC2)n1)c1ccccc1 [Example 146] | 3.29 |
| Cn1oc(=O)nc1C(=NOCc1cccc(NC(=O)CCC2CCCCC2)n1)c1ccccc1 [Example 147] | 4.06 |
| C#CCCCC(=O)Nc1cccc(CON=C(c2ccccc2)c2nc(=O)on2C)n1 [Example 149] | 2.6 |
| CC#CCC(C)OC(=O)Nc1cccc(CON=C(c2ccccc2)c2nc(=O)on2C)n1 (stereo not drawn) [Example 151] | 3.31 |
| C=CCC(C)OC(=O)Nc1cccc(CON=C(c2ccccc2)c2nc(=O)on2C)n1 (stereo not drawn) [Example 152] | 3.39 |
| Cn1oc(=O)nc1C(=NOCc1cccc(NC(=O)OCCCC2CCCCC2)n1)c1ccccc1 [Example 153] | 5.06 |
| CC(C(=O)Nc1cccc(CON=C(c2ccccc2)c2nc(=O)on2C)n1)c1ccccc1 (stereo not drawn) [Example 155] | 3.29 |
| CC#CCCOC(=O)Nc1cccc(CON=C(c2ccccc2)c2nc(=O)on2C)n1 [Example 156] | 3 |
| Cn1oc(=O)nc1C(=NOCc1cccc(NC(=O)c2ccc(F)cc2)n1)c1ccccc1 [Example 157] | 3.04 |
| Cn1oc(=O)nc1C(=NOCc1cccc(NC(=O)OCCC2CCCCC2)n1)c1ccccc1 [Example 158] | 4.63 |
| Cc1ccc(C(=O)Nc2cccc(CON=C(c3ccccc3)c3nc(=O)on3C)n2)cc1 [Example 159] | 3.23 |
| Cn1oc(=O)nc1C(=NOCc1cccc(NC(=O)c2ccccc2)n1)c1ccccc1 [Example 160] | 2.92 |
| CC(C)CCOC(=O)Nc1cccc(CON=C(c2ccccc2)c2nc(=O)on2C)n1 [Example 161] | 3.74 |
| COc1cccc(C(=NOCc2cccc(NC(=O)OCCc3ccccc3)n2)c2nc(=O)on2C)c1 [Example 162] | 3.61 |
| Cn1oc(=O)nc1C(=NOCc1cccc(NC(=O)OCc2ccccc2)n1)c1cccc(F)c1 [Example 163] | 3.5 |
| COc1cccc(C(=NOCc2cccc(NC(=O)CCc3ccccc3)n2)c2nc(=O)on2C)c1 [Example 164] | 3.27 |

| Structure (SMILES) | chromatographic logP |
| --- | --- |
| Cn1oc(=O)nc1C(=NOCc1cccc(NC(=O)OCCc2ccccc2)n1)c1cccc(F)c1 [Example 165] | 3.65 |
| COc1cccc(C(=NOCc2cccc(NC(=O)Cc3ccccc3)n2)c2nc(=O)on2C)c1 [Example 166] | 3.02 |
| Cc1cccc(C(=NOCc2cccc(NC(=O)OCc3ccccc3)n2)c2nc(=O)on2C)c1 [Example 167] | 3.68 |
| Cc1cccc(C(=NOCc2cccc(NC(=O)OCCc3ccccc3)n2)c2nc(=O)on2C)c1 [Example 168] | 3.85 |
| CCCCCC(=O)Nc1cccc(CON=C(c2ccccc2)c2nc(=O)on2CC)n1 [Example 174] | 3.52 |
| CCCCCC(=O)Nc1cccc(CON=C(c2ccccc2)c2nc(=O)on2CCOC)n1 [Example 175] | 3.5 |
| CCC(C)(C)C(=O)Nc1cccc(CON=C(c2ccccc2)c2nc(=O)on2C)n1 [Example 176] | 3.17 |
| CC(OC(=O)Nc1cccc(CON=C(c2ccccc2)c2nc(=O)on2C)n1)C1CCCC1 (stereo not drawn) [Example 179] | 4.15 |
| Cn1oc(=O)nc1C(=NOCc1cccc(NC(=O)OCC2CC2)n1)c1ccccc1 [Example 180] | 3.04 |
| Cn1oc(=O)nc1C(=NOCc1cccc(NC(=O)OCCCC2CC2)n1)c1ccccc1 [Example 181] | 3.76 |
| C/C=C/CCCOC(=O)Nc1cccc(CON=C(c2ccccc2)c2nc(=O)on2C)n1 [Example 183] | 3.81 |
| Cn1oc(=O)nc1C(=NOCc1cccc(NC(=O)OCc2ccccc2Cl)n1)c1ccccc1 [Example 184] | 3.76 |
| COc1ccc(OC(=O)Nc2cccc(CON=C(c3ccccc3)c3nc(=O)on3C)n2)cc1 [Example 185] | 3.15 |
| CCCCOC(=O)Nc1cccc(CON=C(c2cccc(F)c2F)c2nc(=O)on2C)n1 [Example 188] | 3.46 |
| C#CCCOC(=O)Nc1cccc(CON=C(c2cccc(F)c2F)c2nc(=O)on2C)n1 [Example 189] | 2.78 |
| Cn1oc(=O)nc1C(=NOCc1cccc(NC(=O)OCCc2ccccc2)n1)c1cccc(F)c1F [Example 190] | 3.62 |
| COc1ccc(CC(=O)Nc2cccc(CON=C(c3cccc(F)c3F)c3nc(=O)on3C)n2)cc1 [Example 191] | 2.98 |
| Cn1oc(=O)nc1C(=NOCc1cccc(N)n1)c1cccc(F)c1F [Example 192] | 0.96 |
| Cn1oc(=O)nc1/C(=N\OCc1cccc(Br)n1)c1ccccc1 [Example 193, 3-[(Z)-{[(6-bromopyridin-2-yl)methoxy]imino}(phenyl)methyl]-2-methyl-1,2,4-oxadiazol-5(2H)-one] | 2.75 |

same assay, conditions: pH 2.7, LogP, HPLC on reversed phase columns, pH 2.7, 0.1% formic acid in water / acetonitrile gradient; compounds of formula (V), Table 2

| Structure (SMILES) | chromatographic logP |
| --- | --- |
| C#CCCOC(=O)Nc1cccc(CO/N=C(\C(=N)N(C)O)c2ccccc2)n1 [Example V-01, but-3-yn-1-yl (6-{[({(1Z)-2-[hydroxy(methyl)amino]-2-imino-1-phenylethylidene}amino)oxy]methyl}pyridin-2-yl)carbamate] | 1.63 |
| CN(O)C(=N)/C(=N\OCc1cccc(NC(=O)OC(C)(C)C)n1)c1ccccc1 [Example V-02, tert-butyl (6-{[({(1Z)-2-[hydroxy(methyl)amino]-2-imino-1-phenylethylidene}amino)oxy]methyl}pyridin-2-yl)carbamate] | 1.81 |
| CN(O)C(=N)C(=NOCc1cccc(N)n1)c1ccccc1 [Example V-03] | 0.22 |
| Cc1cccc(C(=NOCc2cccc(NC(=O)OC(C)(C)C)n2)C(=N)N(C)O)c1 [Example V-04] | 1.93 |
| CN(O)C(=N)/C(=N\OCc1cccc(NC(=O)OC(C)(C)C)n1)c1cccc(F)c1 [Example V-05, tert-butyl (6-{[({(1Z)-2-[hydroxy(methyl)amino]-2-imino-1-(3-fluorophenyl)ethylidene}amino)oxy]methyl}pyridin-2-yl)carbamate] | 1.86 |
| COc1cccc(C(=NOCc2cccc(NC(=O)OC(C)(C)C)n2)C(=N)N(C)O)c1 [Example V-06] | 1.86 |
| COCCN(O)C(=N)C(=NOCc1cccc(NC(=O)OC(C)(C)C)n1)c1ccccc1 [Example V-07] | 1.93 |
| CCN(O)C(=N)/C(=N\OCc1cccc(NC(=O)OC(C)(C)C)n1)c1ccccc1 [Example V-08, tert-butyl (6-{[({(1Z)-2-[hydroxy(ethyl)amino]-2-imino-1-(phenyl)ethylidene}amino)oxy]methyl}pyridin-2-yl)carbamate] | 1.9 |
| CC(C)N(O)C(=N)C(=NOCc1cccc(NC(=O)OC(C)(C)C)n1)c1ccccc1 [Example V-09] | 2.05 |
| CN(O)C(=N)C(=NOCc1cccc(NC(=O)OC(C)(C)C)n1)c1cccc(F)c1F [Example V-10] | 1.9 |
| CN(O)C(=N)C(=NOCc1cccc(NC(=O)OC(C)(C)C)n1)c1ccccc1C(F)F [Example V-11] | 2.43 |
